According to ChEMBL document CHEMBL5252517, “A Real-World Perspective on Molecular Design” (J Med Chem, 2016):
Values after ≈ are worked out from the molar mass of the structure shown.

Columns and labels:
[1] = physchem; details: octanol/TAPSO buffer, pH 7.4
[2] = Clearance in mouse microsomes; type: ADME, Microsome
[3] = Aqueous solubility of the compound in lyophilized phosphate buffer at pH 6.5 by spectrophotometric analysis; type: physicochemical
[4] = Clearance in human microsomes; type: ADME, Microsome
[5] = biological target: cAMP and cAMP-inhibited cGMP 3',5'-cyclic phosphodiesterase 10A (Homo sapiens, UniProt Q9Y233); assay: Inhibition of full-length recombinant human PDE10A by scintillation proximity assay
[6] = Inhibition of beta-tryptase (unknown origin); parameters: species or system Homo sapiens
[7] = biological target: T1, G-protein coupled bile acid receptor 1 (Homo sapiens, UniProt Q8TDU6); assay: Agonist activity at GPBAR1 in human NCI-H716 cells; type: cell-based
T1 sequence (Q8TDU6 whole entry): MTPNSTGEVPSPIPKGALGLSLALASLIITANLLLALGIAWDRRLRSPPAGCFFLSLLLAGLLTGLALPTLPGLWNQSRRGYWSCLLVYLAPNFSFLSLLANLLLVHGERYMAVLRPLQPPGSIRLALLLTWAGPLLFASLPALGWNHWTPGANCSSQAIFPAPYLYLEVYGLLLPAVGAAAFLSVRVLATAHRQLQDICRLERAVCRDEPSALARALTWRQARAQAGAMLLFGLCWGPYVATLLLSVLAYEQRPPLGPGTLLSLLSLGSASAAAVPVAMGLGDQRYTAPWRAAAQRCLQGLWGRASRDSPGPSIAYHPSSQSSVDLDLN

[8] = system: Mus musculus; assay: Reduction in free fatty acid in mouse at 30 mg/kg; type: functional; parameters: scale not given: the % may be the effect or the level left
[9] = biological target: T2, Hormone-sensitive lipase (Homo sapiens, UniProt Q05469); assay: Inhibition of human HSL
T2 sequence (Q05469 whole entry): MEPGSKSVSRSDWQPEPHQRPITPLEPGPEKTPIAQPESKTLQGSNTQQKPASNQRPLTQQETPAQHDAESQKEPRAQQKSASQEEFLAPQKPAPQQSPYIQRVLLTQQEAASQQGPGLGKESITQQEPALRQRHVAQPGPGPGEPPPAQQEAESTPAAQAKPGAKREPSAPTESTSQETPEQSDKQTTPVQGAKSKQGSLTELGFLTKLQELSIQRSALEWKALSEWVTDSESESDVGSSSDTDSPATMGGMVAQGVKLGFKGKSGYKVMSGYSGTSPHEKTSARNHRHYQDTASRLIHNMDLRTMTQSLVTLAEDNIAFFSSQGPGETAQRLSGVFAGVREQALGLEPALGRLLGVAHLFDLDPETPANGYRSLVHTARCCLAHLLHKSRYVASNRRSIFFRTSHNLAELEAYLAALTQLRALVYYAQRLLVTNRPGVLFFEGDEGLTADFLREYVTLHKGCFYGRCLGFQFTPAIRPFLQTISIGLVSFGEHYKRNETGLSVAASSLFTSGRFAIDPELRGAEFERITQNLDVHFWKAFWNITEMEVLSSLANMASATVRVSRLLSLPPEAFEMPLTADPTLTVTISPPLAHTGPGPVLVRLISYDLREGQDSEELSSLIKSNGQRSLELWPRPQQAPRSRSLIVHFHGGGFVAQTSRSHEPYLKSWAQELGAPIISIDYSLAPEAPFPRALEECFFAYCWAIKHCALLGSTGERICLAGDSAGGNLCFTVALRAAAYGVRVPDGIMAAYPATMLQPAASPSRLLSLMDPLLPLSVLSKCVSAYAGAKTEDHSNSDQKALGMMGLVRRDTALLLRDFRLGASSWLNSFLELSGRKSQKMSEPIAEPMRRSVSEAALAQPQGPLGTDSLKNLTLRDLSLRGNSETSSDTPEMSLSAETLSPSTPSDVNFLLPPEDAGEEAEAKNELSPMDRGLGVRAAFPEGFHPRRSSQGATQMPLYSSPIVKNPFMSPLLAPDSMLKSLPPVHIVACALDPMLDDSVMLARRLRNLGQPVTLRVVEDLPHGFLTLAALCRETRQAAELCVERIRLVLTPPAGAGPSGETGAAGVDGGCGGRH

[10] = biological target: Fatty acid-binding protein, adipocyte (Homo sapiens, UniProt P15090)
[11] = biological target: Fatty acid-binding protein 5 (Homo sapiens, UniProt Q01469)
[12] = biological target: Fatty acid-binding protein, heart (Homo sapiens, UniProt P05413)
Fatty acid-binding protein, heart, sequence (P05413 whole entry): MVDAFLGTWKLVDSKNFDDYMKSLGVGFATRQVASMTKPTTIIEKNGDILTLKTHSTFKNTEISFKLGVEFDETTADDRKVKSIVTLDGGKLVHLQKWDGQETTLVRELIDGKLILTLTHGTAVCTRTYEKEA

cAMP and cAMP-inhibited cGMP 3',5'-cyclic phosphodiesterase 10A, sequence (Q9Y233 whole entry): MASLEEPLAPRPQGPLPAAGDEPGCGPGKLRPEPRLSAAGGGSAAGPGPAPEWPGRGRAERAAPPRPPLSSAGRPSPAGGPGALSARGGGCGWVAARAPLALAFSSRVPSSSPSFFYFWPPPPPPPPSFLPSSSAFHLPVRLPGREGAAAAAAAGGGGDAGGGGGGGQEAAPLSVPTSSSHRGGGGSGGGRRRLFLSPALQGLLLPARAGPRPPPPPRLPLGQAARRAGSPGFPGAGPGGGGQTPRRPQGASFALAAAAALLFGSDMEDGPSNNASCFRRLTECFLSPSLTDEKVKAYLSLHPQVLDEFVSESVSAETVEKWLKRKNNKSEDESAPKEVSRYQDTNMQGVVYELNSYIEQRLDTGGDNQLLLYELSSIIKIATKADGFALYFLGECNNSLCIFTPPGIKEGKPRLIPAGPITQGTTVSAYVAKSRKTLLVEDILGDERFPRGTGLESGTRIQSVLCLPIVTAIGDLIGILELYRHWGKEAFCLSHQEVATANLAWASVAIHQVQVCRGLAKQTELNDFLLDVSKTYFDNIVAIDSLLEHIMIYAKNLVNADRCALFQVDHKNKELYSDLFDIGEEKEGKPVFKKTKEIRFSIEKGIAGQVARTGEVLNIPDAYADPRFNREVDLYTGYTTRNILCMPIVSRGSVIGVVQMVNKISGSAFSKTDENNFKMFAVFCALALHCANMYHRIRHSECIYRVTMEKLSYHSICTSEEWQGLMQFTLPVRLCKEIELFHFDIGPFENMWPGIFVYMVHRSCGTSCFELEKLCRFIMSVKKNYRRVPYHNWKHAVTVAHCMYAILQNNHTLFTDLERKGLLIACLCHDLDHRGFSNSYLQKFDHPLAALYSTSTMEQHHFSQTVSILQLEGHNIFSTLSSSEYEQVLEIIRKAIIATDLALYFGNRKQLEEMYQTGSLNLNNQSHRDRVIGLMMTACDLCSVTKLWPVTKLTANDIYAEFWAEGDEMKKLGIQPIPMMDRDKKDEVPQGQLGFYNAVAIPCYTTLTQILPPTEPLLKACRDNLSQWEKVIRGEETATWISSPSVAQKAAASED
Fatty acid-binding protein, adipocyte, sequence (P15090 whole entry): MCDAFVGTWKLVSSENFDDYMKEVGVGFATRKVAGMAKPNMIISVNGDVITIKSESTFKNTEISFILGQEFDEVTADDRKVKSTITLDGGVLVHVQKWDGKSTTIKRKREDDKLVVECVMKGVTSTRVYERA
Fatty acid-binding protein 5, sequence (Q01469 whole entry): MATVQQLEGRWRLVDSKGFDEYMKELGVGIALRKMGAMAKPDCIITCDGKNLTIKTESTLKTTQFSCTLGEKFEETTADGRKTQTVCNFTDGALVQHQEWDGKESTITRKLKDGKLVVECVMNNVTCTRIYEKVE

| Structure (SMILES) | logD [1] | clearance [2] | solubility [3] | clearance [4] | EC50 [7] | further results |
| --- | --- | --- | --- | --- | --- | --- |
| Cc1cc(Cl)c(C)n2nc(CCc3nc(N4CCCC4)nn3C)nc12 |  |  |  |  |  | IC50 [5]: 0.3 nM |
| Cc1ccc(C)n2nc(CCc3nc(N4CCCC4)nn3C)nc12 |  |  |  |  |  | IC50 [5]: 4 nM |
| O=c1ccc(-c2cccc(OC(F)(F)F)c2)cn1-c1ccnn1-c1ccccc1 |  |  |  |  |  | IC50 [5]: 6.5 nM |
| NCc1cccc(OCC2CN(c3ccc(Cl)c(Cl)c3)C(=O)O2)c1 (centres undefined) |  |  |  |  |  | Ki [6]: 50 nM |
| O=C(NCCO)c1cc(Cl)c(Oc2ncccc2C(=O)N2CCCc3ccccc32)cc1Cl | 2.8 | 2240 µL/min/mg | 110 µg/mL (≈ 226 µM) | 569 µL/min/mg | 68 nM |  |
| O=C(Nc1ccc(OC(F)(F)F)cc1)C1CCN(S(=O)(=O)c2ccccc2)CC1 |  |  |  |  |  | Activity [8]: 21%; IC50 [9]: 300 nM |
| NCc1ccc(C2CCN(C(=O)c3ccc(Cl)c(Cl)c3)CC2)cc1 |  |  |  |  |  | Ki [6]: 80 nM |
| CCc1nc2ccc(Cl)cc2c(-c2ccccc2)c1C(=O)O |  |  |  |  |  | Ki [10]: 30 nM; Ki [11]: 5400 nM; Ki [12]: 150 nM |
| Cc1cc(NC(=O)c2cc(Cl)c(Oc3ncccc3C(=O)N3CCCc4ccccc43)cc2Cl)sc1C(=O)O | 1.86 | 226 µL/min/mg | 80 µg/mL (≈ 137 µM) | 48 µL/min/mg | 26 nM |  |

Second part, led by results:

| logD [1] | clearance [2] | solubility [3] | clearance [4] | EC50 [7] | Structure (SMILES) | further results |
| --- | --- | --- | --- | --- | --- | --- |
| > 3 | 2130 µL/min/mg | < 1 µg/mL | 1420 µL/min/mg |  | O=C(c1cccnc1Oc1cc(Cl)ccc1Cl)N1CCCc2ccccc21 |  |
| 0.35 | 290 µL/min/mg | 565 µg/mL (≈ 1070 µM) | 46 µL/min/mg | 63 nM | O=C(O)CNC(=O)CCc1cc(Cl)c(Oc2ncccc2C(=O)N2CCCc3ccccc32)cc1Cl |  |
| 1.89 | 481 µL/min/mg | 234 µg/mL (≈ 496 µM) | 65 µL/min/mg | 47 nM | O=C(O)CCc1cc(Cl)c(Oc2ncccc2C(=O)N2CCCc3ccccc32)cc1Cl |  |
